Experimental data: patent US5656603A (Loyola University of Chicago, priority 1995, dated 1997)
Where “and” joins values, the source holds several entries; their conditions need not be identical. Equal entries are not always repeated. Entries after “also recorded” stand apart in the source; their conditions may differ. Each block holds one molecule with its values, some of them ahead of it.

Tests used:
[1] = biological target: T1, purified bovine lung membrane-bound aminopeptidase P (Bos taurus, UniProt E1B735); assay: Aminopeptidase P inhibition, release of arginine from Arg-Pro-Pro (fluorescent assay); type: biochemical; settings: bovine lung aminopeptidase P; cleavage of 0.5 μM Arg-Pro-Pro in 0.1M Hepes, pH 8.0 at 37° C.
T1 construct: from tissue; host or cells: bovine lung
T1 sequence (E1B735 22-673): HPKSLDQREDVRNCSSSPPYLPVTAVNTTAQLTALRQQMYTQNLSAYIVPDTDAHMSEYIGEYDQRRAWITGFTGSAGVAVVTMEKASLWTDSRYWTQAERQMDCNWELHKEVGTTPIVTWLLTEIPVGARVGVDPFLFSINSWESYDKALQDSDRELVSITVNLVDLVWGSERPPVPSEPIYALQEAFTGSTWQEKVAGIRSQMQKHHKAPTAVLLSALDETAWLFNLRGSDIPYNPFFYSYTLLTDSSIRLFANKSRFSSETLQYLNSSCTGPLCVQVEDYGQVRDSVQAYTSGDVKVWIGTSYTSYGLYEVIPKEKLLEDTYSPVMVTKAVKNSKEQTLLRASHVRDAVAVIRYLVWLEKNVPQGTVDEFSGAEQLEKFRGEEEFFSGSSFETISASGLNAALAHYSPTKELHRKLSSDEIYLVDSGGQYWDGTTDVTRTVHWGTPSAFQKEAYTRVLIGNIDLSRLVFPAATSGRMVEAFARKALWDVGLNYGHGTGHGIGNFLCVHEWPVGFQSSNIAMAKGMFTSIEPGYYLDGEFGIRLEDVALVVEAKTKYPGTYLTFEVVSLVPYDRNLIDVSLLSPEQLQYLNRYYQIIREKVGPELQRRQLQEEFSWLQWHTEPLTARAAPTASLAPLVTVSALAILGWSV
Protocol: The IC50 of the compound of the present invention in relation to aminopeptidase P was also determined. […] The specificity of the compound of the present invention for other aminopeptidases was similarly determined as described in the Experimental Procedures herein. […] The following enzymes had IC50 values>800 μM: aminopeptidase A, angiotensin converting enzyme, dipeptidyl-peptidase I-like activity, bestatin-sensitive/amastatin-insensitive membrane dipeptidase (29), microsomal dipeptidase, endopeptidase 24.11, endopeptidase 24.15, and prolyl oligopeptidase.
(§1) Enzymes--Membrane-bound aminopeptidase P was purified to homogeneity from bovine lung (14) and from rat lung. Partially purified membrane-bound aminopeptidase P from human lung was obtained by treatment of lung microsomes with phosphatidylinositol-specific phospholipase C (B. thuringiensis) (ICN, Costa Mesa, Calif.) followed by centrifugation as described previously (14). Membrane dipeptidase was purified from rat lung microsomes (manuscript in preparation). Recombinant E. coli aminopeptidase P (22) and purified lamb kidney prolyl oligopeptidase (23) were generally supplied by Dr. Tadashi Yoshimoto (Nagasaki University). Purified porcine kidney prolidase and purified porcine kidney aminopeptidase M was obtained from Sigma (St. Louis, Mo.).
(§2) Enzyme Kinetics--Aminopeptidase P activity was determined by measuring the release of arginine from Arg-Pro-Pro by a fluorescent assay described previously (14). […] Each mixture was run in duplicate. Aliquots were removed from each incubation mixture at various times and assayed for the amount of arginine present to determine the reaction velocity. In general, reaction velocities were calculated from data representing less than 20% cleavage of substrate. Ki and Ki ' (=αKi) were determined from plots of 1/v versus concentration of inhibitor "i" (26) and S/v versus concentration of inhibitor "i" (27), respectively. These parameters were also determined from the slope replot and 1/v-intercept replot, respectively, of the 1/v versus 1/S plot (28). See e.g., FIG. 1B. The values from the two treatments of the data were averaged for each experiment. Experiments for each enzyme preparation were performed twice and the results averaged.

[2] = biological target: T2, partially purified human lung membrane-bound aminopeptidase P (Homo sapiens, UniProt O43895); assay: as above; type: biochemical; settings: human lung aminopeptidase P; for IC50: cleavage of 0.5 μM Arg-Pro-Pro in 0.1M Hepes, pH 8.0 at 37° C.
T2 construct: from tissue; host or cells: human lung microsomes
Protocol: The IC50 of the compound of the present invention in relation to aminopeptidase P was also determined. […] The specificity of the compound of the present invention for other aminopeptidases was similarly determined as described in the Experimental Procedures herein.
as §1
as §2, with “See e.g., FIG. 1B.” left out

[3] = system: [3H]-bradykinin degradation in the isolated perfused rat lung; assay: [3H]-bradykinin degradation in the isolated perfused rat lung (HPLC of perfusate)
Protocol: Using the procedure described herein, under Experimental Procedures it was determined that aminopeptidase P contributed to Bk degradation in the mammalian lung. In that procedure, [^3 H]-Bk (labelled in Pro^2 and Pro^3) was perfused through the isolated lung in the presence or absence of various peptidase inhibitors. The perfusate was then analyzed for radiolabelled products by HPLC. […] Most of the radioactivity (an average of 79%) was in the form of [^3 H]-Pro-Pro [Bk(2-3)] with the remainder being [^3 H]-Bk(1-5). It was hypothesized that pulmonary vascular aminopeptidase P was cleaving the Arg'-Pro^2 bond followed by rapid removal of Pro-Pro by dipeptidylpeptidase IV (DPP IV) (12). Simultaneously, angiotensin converting enzyme (ACE) was sequentially removing Phe-Arg and Ser-Pro from the C-terminus (13). […] However, most of the radioactivity remained in the Pro-Pro peak indicating substantial cleavage of Bk at the N-terminal end.
Perfusion of the Isolated Rat Lung--Male Sprague Dawley rats, weighing 300-500 grams, were anesthetized with sodium pentobarbital (50-75 mg/kg) given by intraperitoneal injection. The trachea was cannulated and the lungs ventilated with air at 70 cycles per minute (Harvard Small Animal Ventilator) at a pressure of 70 mm H2 O. The heart and lungs were exposed via midsternal incision and 1000 units of heparin were administered intracardially. Polyethylene cannulae were secured into the pulmonary artery and the left ventricle. A modified Krebs buffer (118.5 mM NaCl, 4.7 mM KCl, 1.1 mM KH2 PO4, 1.1 mM MgSO4, 2.5 mM CaCl2, 19.6 mM NaHCO3, 5.6 mM dextrose), which was kept in a 50° C. water bath and aerated with 95% O2 -5% CO2 to pH 7.35, was perfused into the pulmonary artery at 35° C. and 2.6 ml/min (LKB Microperplex peristaltic pump). The buffer was circulated through the isolated lung in situ until the effluent was free of blood. The surgical field was maintained at 37° .C with a heat lamp throughout the procedure. Experiments were conducted by introducing [^3 H]-Bk in the presence or absence of test peptidase inhibitors into the pulmonary circulation via the pulmonary artery and then collecting perfusion effluent from the left ventricular cannula. […] The lung was then perfused with 1 μCi [^3 H]-Bk in 1 ml of the inhibitor solution (giving 16 nM Bk) followed by inhibitor solution alone. Effluent was collected in tubes (0.5 min/fraction) containing 150 μl of 2% TFA. For each lung preparation, 5-6 samples were perfused over a period of about one hour. Control perfusions of [^3 H]-Bk alone were always carried out before perfusions of samples containing ramiprilat because of the slow reversibility of inhibition of ACE by this compound. […] The effects of the latter two inhibitors were reversible.
Separation and Identification of Bradykinin Metabolites--The fractions which were collected from each perfusion sample run were counted for radioactivity, and the fraction having the highest radioactive counts was prepared for HPLC by filtration through a Centricon-10 microconcentrator (Amicon). An aliquot of the filtrate containing 25000 dpm (approx. 25 μl) was spiked with a cocktail of unlabelled Bk fragments (3 μl) and then subjected to HPLC using a Waters Radial Compression Separation System with a 5μ NOVA PAK C18 Radial Pak Cartridge. The column was developed at a flow rate of 1 ml/min with a 60 min linear gradient from 100% Solvent A (0.1% TFA in water) to 75% Solvent A: 25% Solvent B (0.08% TFA in acetonitrile) using a Spectra Physics 8700XR Solvent Delivery System. The column effluent was simultaneously monitored for absorbance at 206 nm (LKB Uvicord S) and for radioactivity (Radiomatic Flo-One HS Radioactive Flow Detector using Ultima-Flo M scintillation fluid from Packard, Meriden, Conn.). […] Radioactive peaks were identified by comparison of the retention times to those of the unlabelled standards. […]

[4] = system: membrane-bound aminopeptidase P; assay: partially purified human lung membrane-bound aminopeptidase P in 0.1 M Hepes, pH 8.0; settings: 39° C.
[5] = isolated perfused rat lung, modified Krebs buffer; settings: Male Sprague Dawley rats, 35° C.

T2 sequence (O43895 22-674): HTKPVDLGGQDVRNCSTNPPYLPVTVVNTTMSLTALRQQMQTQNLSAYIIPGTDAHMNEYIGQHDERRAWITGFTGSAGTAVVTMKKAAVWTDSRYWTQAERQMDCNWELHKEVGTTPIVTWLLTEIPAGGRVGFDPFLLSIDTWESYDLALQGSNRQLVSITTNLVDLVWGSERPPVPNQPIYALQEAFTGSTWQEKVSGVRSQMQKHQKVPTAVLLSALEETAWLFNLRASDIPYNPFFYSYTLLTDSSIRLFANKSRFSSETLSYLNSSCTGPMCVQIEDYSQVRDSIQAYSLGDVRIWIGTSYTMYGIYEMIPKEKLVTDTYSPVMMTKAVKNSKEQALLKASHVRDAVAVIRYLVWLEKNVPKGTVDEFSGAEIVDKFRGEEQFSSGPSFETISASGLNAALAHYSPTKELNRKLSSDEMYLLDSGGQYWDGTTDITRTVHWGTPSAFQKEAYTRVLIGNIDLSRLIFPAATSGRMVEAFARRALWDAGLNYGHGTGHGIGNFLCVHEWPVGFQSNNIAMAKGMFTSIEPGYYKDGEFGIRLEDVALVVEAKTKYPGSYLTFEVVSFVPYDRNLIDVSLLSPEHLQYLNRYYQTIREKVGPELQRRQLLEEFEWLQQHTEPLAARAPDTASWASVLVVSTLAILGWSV

IC50 [1]: 2.1 µM
IC50 [2]: 0.43 µM
Molecule: CC(C)C[C@H](N)[C@@H](O)C(=O)N1CCC[C@H]1C(=O)N1CCC[C@H]1C(=O)N[C@@H](C)C(N)=O [(2R,3S), N-[(2R,3S)-3-amino-2-hydroxy-5-methylhexanoyl]-L-prolyl-L-prolyl-L-alaninamide]

IC50 [1]: 4.5 µM
IC50 [2]: 0.23 µM
IC50 relative to the IC50 of apstatin ([2]; versus apstatin […]): approximately ten-fold
Molecule: CC(C)C[C@@H](N)[C@H](O)C(=O)N1CCC[C@H]1C(=O)N1CCC[C@H]1C(=O)N[C@@H](C)C(N)=O [(2S,3R), N-[(2S,3R)-3-amino-2-hydroxy-5-methylhexanoyl]-L-prolyl-L-prolyl-L-alaninamide]

Molecule: CC(C)C[C@@H](N)[C@H](O)C(=O)N[C@H](C(=O)N[C@H](C(=O)N[C@@H](CC(=O)O)C(=O)O)C(C)C)C(C)C [amastatin, [(2S, 3R)-3-amino-2-hydroxy-5-methylhexanoyl]-Val-Val-Asp]
effect on the pattern of metabolites ([3]; 100 μM along with ramiprilat in the perfusion medium (data not shown)): no significant effect

Molecule: CC[C@H](C)[C@H](N)C(=O)N1CCC[C@H]1C(=O)N[C@H](C(=O)O)[C@@H](C)CC [diprotin A, Ile-Pro-Ile]
form of radioactivity eluted from the lung ([3]; diprotin A present along with ramiprilat (data not shown)): most of the radioactivity eluted from the lung in the form of [^3 H]-Bk(2-9)

Molecule: C[C@H](N[C@@H](CCc1ccccc1)C(=O)O)C(=O)N1[C@H](C(=O)O)C[C@@H]2CCC[C@@H]21 [ramiprilat]
percentage of radioactivity eluting from the lung as intact [3H]-Bk ([3]; ramiprilat (0.5 μM) alone in the perfusion medium, mean ± SEM, three rats): 22±6% and 22%
fold increase of intact [3H]-Bk eluting from the lung ([3]; ramiprilat alone versus no inhibitor (unmeasurable levels)): ≥ 22 fold

cleaved bond [4]: Arg-Pro
Molecule: Arg-Pro-Pro

Molecule: [2,3-Prolyl-3,4-^3 H(N)]-bradykinin
cleaved bond [5]: rapid removal of Pro-Pro by dipeptidylpeptidase IV (DPP IV); also recorded: Pro7-Phe8; also recorded: removing Ser-Pro from the C-terminus (after Phe-Arg); also recorded: Arg1-Pro2, major; also recorded: [^3 H]-Pro-Pro arose by DPP IV cleavage of [^3 H]-Bk(2-9)
fragment found [5]: [^3 H]-Bk(1-5), major; also recorded: [^3 H]-Pro-Pro, minor
not cleaved [5]: no [^3 H]-Bk(1-7) was observed in the perfusate
